Laboratory results from paper PMC10487658, “Identification and Characterization of RK22, a Novel Antimicrobial Peptide from Hirudinaria manillensis against Methicillin Resistant Staphylococcus aureus” (International Journal of Molecular Sciences, 2023).
No end group written: not given here.

Assays:
[1] = system: A. baumannii, ATCC19606; format: cell-based, Acinetobacter baumannii; conditions: RPMI 1640, 2 × 10^5 CFU/mL, 37 °C, 12–16 h, absorbance at 600 nm
Description: The bacterial strains used in this study included Pseudomonas aeruginosa (P. aeruginosa, ATCC27853), Acinetobacter baumannii (A. baumannii, ATCC19606), Escherichia coli (E. coli, ATCC8739), and S. aureus (ATCC6538, two clinically isolated strains (SA220823 and SA15772)), and three clinically isolated methicillin-resistant strains (MRSA-Z, MRSA11, and MRSA22). All strains were grown in Luria-Bertani (LB) broth.
The minimum inhibitory concentration (MIC) for all strains was determined using the […] assay based on a previous study with minor modifications. Initially, strains in the exponential phase were diluted to a concentration of 2 × 10^5 CFU/mL using RPMI 1640 medium (Corning, New York, NY, USA). Next, 100 μL of the bacterial suspension was mixed with 100 μL of the sample solution (final concentration 0–200 μg/mL in RPMI 1640 medium) in 96-well plates. The plates were then incubated at 37 °C for 12–16 h. After incubation, the absorbance at 600 nm was measured, and the MIC was determined as the lowest concentration of the test sample in which no bacterial growth was detected in the well.

[2] = system: E. coli, ATCC25922; format: cell-based, Escherichia coli; conditions: E. coli ATCC25922; RPMI 1640, 37 °C, 12–16 h, absorbance at 600 nm
[3] = system: mouse red blood cells; assay: Hemolysis assay; format: cell-based; conditions: up to 400 μg/mL, 37 °C, 1 h, absorbance 540 nm, 1% Triton X-100 = 100%, 3 independent experiments
Description: The hemolysis and cytotoxicity assays were performed according to previous research with some modifications. In the hemolysis assay, mouse blood was collected in anticoagulant tubes, centrifuged (1000× g, 5 min), and washed with normal saline three times to obtain red blood cells. The red blood cells were then resuspended to prepare a 10% red blood cell suspension. The suspension was mixed with an equal volume solution of RK22 (final concentration 0–400 μg/mL), then incubated at 37 °C for 1 h and centrifuged (1000× g, 10 min). After this, 150 μL of the supernatant was transferred to a new 96-well plate, with absorbance then measured at 540 nm. Additionally, 1% Triton X-100 and sterile saline treatment groups accounted for 100% and 0% hemolysis, respectively.
Supplementary Figures and Figure legends
Figure S1. […] After incubation for 60 min at 37°C, cells were centrifuged (3,500 rpm, 5 min) and the absorbance of the supernatant was measured at 540 nm. The value for “zero hemolysis” was determined using sterile saline (negative control, NC), while 100% hemolysis was established using 1% (v/v) Triton X-100 (PC: positive control). Hemolysis of testing sample was calculated as the percentage of Triton X-100-induced hemolysis. […] Cell viability was determined by adding 10 μl CCK8 in to the cells and incubated for 1-4 h. The absorbance at 450 nm of the solution was measured with a microplate reader. […]

[4] = system: washed platelets; assay: Platelet activity assay, flow cytometry; format: cell-based; conditions: mouse washed platelets, 20, 10, 5, 2.5 μg/mL, 10 min, P-selectin
Description: Platelets were isolated from the mice as described in a previous study with minor modifications. The effect of RK22 and LL-37 on platelet activity was detected by flow cytometry. Mouse blood was mixed with Tyrode’s buffer A (137 mM NaCl, 2 mM KCl, 0.3 mM NaH2PO4, 12 mM NaHCO3, 5.5 mM glucose, 0.35% BSA, 1 mM MgCl2, and 0.2 mM EDTA, pH 6.5) and centrifuged (150× g, 10 min, room temperature) to obtain platelet-rich plasma (PRP), which was then pelleted (400× g, 5 min, room temperature), washed with Tyrode’s buffer A, and finally resuspended in Tyrode’s buffer B (137 mM NaCl, 2 mM KCl, 0.3 mM NaH2PO4, 12 mM NaHCO3, 5.5 mM glucose, 0.35% BSA and 2 mM CaCl2, pH 7.4). Antibodies against P-selectin (Biolegend, San Diego, CA, USA) were added to the platelets, followed by incubation for 10 min at room temperature. Samples (20, 10, 5, and 2.5 μg/mL) or normal saline were added, respectively, and analyzed by flow cytometry (BD, LSRFortessa^TM, Franklin Lakes, NJ, USA).

Sequence: RKYKEKKDKSQNKKKKRKCMIL [RK22]
- MIC [1]: 100 µg/mL
- MIC [2]: 25 µg/mL
- hemolytic activity [3]: did not exhibit any obvious hemolytic activity
- platelet activation [4]: did not exert any such effects
